Results as given in patent US10696651B2, “Heterocyclic compound” (Takeda Pharmaceutical Company Limited, priority 2016, dated 2020).
Counter-ions that a name gives are not always drawn.

Each compound was assayed against T1, human GCN2 full-length protein (Homo sapiens, UniProt Q9P2K8) (assay: GCN2 enzyme inhibition assay (LanthaScreen TR-FRET)). Details: GCN2 enzyme inhibitory activity at compound concentration of 3 μM; Table 3-1; read-out: inhibitory rate.
T1 construct: purchased Carna Biosciences, Inc
Type: biochemical
Procedure: GCN2 enzyme was preserved at -70° C. and used. The GCN2 enzyme inhibitory activity of the test compound was measured by the LanthaScreenTR-FRET (Time Resolved Fluorescence Resonance Energy Transfer) method (manufactured by ThermoFisher). […] Then, GCN2 enzyme solution diluted with the assay buffer was added by 2 μL to each well. The enzyme solution was not added to a part of the wells to give a control group. After incubation at room temperature for 1 hr, 570 μM ATP solution containing 390 nM […] physiological protein substrate (ThermoFisher) was added by 2 μL. After reaction at room temperature for 1 hr, TR-FRET Dilution Buffer (ThermoFisher) containing 4 nM Terbium-labeled anti-elF2alpha [[…]] antibody (ThermoFisher) dissolved therein was added by 2 μL to each well. After standing at room temperature for 1 hr, time decomposition fluorescence measurement was performed on platereader Envision (manufactured by PerkinElmer).

T1 sequence (Q9P2K8 whole entry): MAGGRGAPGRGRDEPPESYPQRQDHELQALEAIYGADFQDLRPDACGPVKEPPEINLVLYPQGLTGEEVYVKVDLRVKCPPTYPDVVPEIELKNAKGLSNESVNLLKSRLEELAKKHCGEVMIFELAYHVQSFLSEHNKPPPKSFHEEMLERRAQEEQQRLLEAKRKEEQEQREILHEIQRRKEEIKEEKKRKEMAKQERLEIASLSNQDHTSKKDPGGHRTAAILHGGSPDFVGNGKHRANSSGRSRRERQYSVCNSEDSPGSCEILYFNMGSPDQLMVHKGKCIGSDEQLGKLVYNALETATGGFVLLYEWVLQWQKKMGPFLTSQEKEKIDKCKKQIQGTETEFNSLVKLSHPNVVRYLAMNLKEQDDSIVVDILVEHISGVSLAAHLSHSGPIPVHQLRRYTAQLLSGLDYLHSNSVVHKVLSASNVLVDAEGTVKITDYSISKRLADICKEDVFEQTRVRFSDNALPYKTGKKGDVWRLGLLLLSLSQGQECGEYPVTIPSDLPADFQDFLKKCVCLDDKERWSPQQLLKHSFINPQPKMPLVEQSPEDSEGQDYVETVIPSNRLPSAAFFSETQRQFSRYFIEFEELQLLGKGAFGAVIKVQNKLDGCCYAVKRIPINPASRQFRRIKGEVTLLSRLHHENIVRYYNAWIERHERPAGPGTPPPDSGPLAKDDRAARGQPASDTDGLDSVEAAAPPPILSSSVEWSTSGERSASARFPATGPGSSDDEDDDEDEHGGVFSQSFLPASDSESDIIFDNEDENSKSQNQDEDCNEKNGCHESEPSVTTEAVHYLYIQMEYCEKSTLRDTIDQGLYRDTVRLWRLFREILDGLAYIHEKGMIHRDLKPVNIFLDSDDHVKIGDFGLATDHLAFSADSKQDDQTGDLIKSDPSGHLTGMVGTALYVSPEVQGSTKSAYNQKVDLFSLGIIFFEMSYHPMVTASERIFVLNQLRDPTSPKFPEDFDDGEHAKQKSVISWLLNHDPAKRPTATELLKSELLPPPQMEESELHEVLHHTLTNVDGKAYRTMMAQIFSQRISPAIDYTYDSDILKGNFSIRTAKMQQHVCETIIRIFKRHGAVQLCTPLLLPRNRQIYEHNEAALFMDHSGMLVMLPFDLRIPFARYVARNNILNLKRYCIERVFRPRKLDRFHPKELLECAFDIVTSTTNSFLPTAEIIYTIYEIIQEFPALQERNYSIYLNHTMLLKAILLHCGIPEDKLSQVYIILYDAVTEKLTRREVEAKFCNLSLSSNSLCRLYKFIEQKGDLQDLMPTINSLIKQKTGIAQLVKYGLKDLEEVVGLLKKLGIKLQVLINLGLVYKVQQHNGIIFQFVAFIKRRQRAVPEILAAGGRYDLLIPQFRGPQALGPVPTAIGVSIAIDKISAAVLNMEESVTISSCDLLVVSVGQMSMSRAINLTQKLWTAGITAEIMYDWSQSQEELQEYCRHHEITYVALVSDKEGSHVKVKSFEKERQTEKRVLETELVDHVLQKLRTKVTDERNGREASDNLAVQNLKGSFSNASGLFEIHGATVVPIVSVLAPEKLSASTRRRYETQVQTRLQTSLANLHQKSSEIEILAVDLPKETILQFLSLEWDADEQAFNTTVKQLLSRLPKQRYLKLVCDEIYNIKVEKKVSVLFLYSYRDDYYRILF

Row | Structure (SMILES) | inhibition at 3 µM
1 | COc1ncc(Cl)cc1S(=O)(=O)Nc1ccc(F)c(C#Cc2cnc(N)nn2)c1F [Example 109, N-(3-((3-amino-1,2,4-triazin-6-yl)ethynyl)-2,4-difluorophenyl)-5-chloro-2-methoxypyridine-3-sulfonamide] | 99%
2 | C[C@H](CO)Nc1ncc(C#Cc2c(F)ccc(NS(=O)(=O)c3cc(Cl)ccc3Cl)c2F)cn1 [Example 22, 2,5-dichloro-N-(2,4-difluoro-3-((2-(((2R)-1-hydroxypropan-2-yl)amino)pyrimidin-5-yl)ethynyl)phenyl)benzenesulfonamide TFA Salt] | 99%
3 | O=S(=O)(Nc1ccc(F)c(C#Cc2cnc(NCCCO)nc2)c1F)c1cc(Cl)ccc1Cl [Example 28, 2,5-dichloro-N-(2,4-difluoro-3-((2-((3-hydroxypropyl)amino)pyrimidin-5-yl)ethynyl)phenyl)benzenesulfonamide TFA Salt] | 99%
4 | O=S(=O)(Nc1ccc(F)c(C#Cc2cnc(NC3CCOC3)nc2)c1F)c1cc(Cl)ccc1Cl (stereo not drawn) [Example 16, 2,5-dichloro-N-(2,4-difluoro-3-((2-(tetrahydrofuran-3-ylamino)pyrimidin-5-yl)ethynyl)phenyl)benzenesulfonamide TFA Salt] | 100%
5 | COc1ncc(Cl)cc1S(=O)(=O)Nc1cccc(C#Cc2cnc(N)nc2)c1F [Example 123, N-(3-((2-aminopyrimidin-5-yl)ethynyl)-2-fluorophenyl)-5-chloro-2-methoxypyridine-3-sulfonamide] | 100%
6 | O=S(=O)(Nc1ccc(F)c(C#Cc2cnc(NC3CC3)nc2)c1F)c1cc(Cl)ccc1Cl [Example 11, 2,5-dichloro-N-(3-((2-(cyclopropylamino)pyrimidin-5-yl)ethynyl)-2,4-difluorophenyl)benzenesulfonamide TFA Salt] | 99%
7 | Nc1ncc(C#Cc2c(F)ccc(NS(=O)(=O)c3cc(Cl)ccc3Cl)c2F)c(N)n1 [Example 34, 2,5-dichloro-N-(3-((2,4-diaminopyrimidin-5-yl)ethynyl)-2,4-difluorophenyl)benzenesulfonamide] | 98%
8 | Nc1ncc(C#Cc2c(F)ccc(NS(=O)(=O)c3cc(Cl)ccc3C(F)(F)F)c2F)cn1 [Example 6, N-(3-((2-aminopyrimidin-5-yl)ethynyl)-2,4-difluorophenyl)-5-chloro-2-(trifluoromethyl)benzenesulfonamide] | 99%
9 | Cc1ccc(C)c(S(=O)(=O)Nc2ccc(F)c(C#Cc3cnc4[nH]ncc4c3)c2F)c1 [Example 112, N-(2,4-difluoro-3-(1H-pyrazolo[3,4-b]pyridin-5-ylethynyl)phenyl)-2,5-dimethylbenzenesulfonamide TFA Salt] | 99%
10 | COc1ncc(Cl)cc1S(=O)(=O)Nc1ccc(F)c(C#Cc2cnc(NC(C)C)nc2)c1F [Example 106, 5-chloro-N-(2,4-difluoro-3-((2-(isopropylamino)pyrimidin-5-yl)ethynyl)phenyl)-2-methoxypyridine-3-sulfonamide] | 99%
11 | COc1ncc(Cl)cc1S(=O)(=O)Nc1ccc(F)c(C#Cc2cnc(N)c(C)n2)c1F [Example 110, N-(3-((5-amino-6-methylpyrazin-2-yl)ethynyl)-2,4-difluorophenyl)-5-chloro-2-methoxypyridine-3-sulfonamide] | 100%
12 | O=S(=O)(Nc1ccc(F)c(C#Cc2cnc(N[C@H]3CC[C@H](O)CC3)nc2)c1F)c1cc(Cl)ccc1Cl [Example 32, 2,5-dichloro-N-(2,4-difluoro-3-((2-((trans-4-hydroxycyclohexyl)amino)pyrimidin-5-yl)ethynyl)phenyl)benzenesulfonamide TFA Salt] | 99%
13 | Nc1ncc(C#Cc2c(F)ccc(NS(=O)(=O)c3cc(Cl)cc(Cl)c3)c2F)cn1 [Example 27, N-(3-((2-aminopyrimidin-5-yl)ethynyl)-2,4-difluorophenyl)-3,5-dichlorobenzenesulfonamide] | 95%
14 | Cc1ncc(Cl)cc1S(=O)(=O)Nc1ccc(F)c(C#Cc2cnc(NC(C)C)nc2)c1F [Example 105, 5-chloro-N-(2,4-difluoro-3-((2-(isopropylamino)pyrimidin-5-yl)ethynyl)phenyl)-2-methylpyridine-3-sulfonamide] | 100%
15 | Nc1ncc(C#Cc2c(F)ccc(NS(=O)(=O)c3cc(Cl)ccc3OC(F)(F)F)c2F)cn1 [Example 12, N-(3-((2-aminopyrimidin-5-yl)ethynyl)-2,4-difluorophenyl)-5-chloro-2-(trifluoromethoxy)benzenesulfonamide] | 99%
16 | COc1ncc(Cl)cc1S(=O)(=O)Nc1ccc(F)c(C#Cc2cnc(NC(C)(C)CO)nc2)c1F [Example 108, 5-chloro-N-(2,4-difluoro-3-((2-((1-hydroxy-2-methylpropan-2-yl)amino)pyrimidin-5-yl)ethynyl)phenyl)-2-methoxypyridine-3-sulfonamide] | 99%
17 | COc1ncc(Cl)cc1S(=O)(=O)Nc1ccc(F)c(C#Cc2cnc(N)nc2)c1Cl [Example 125, N-(3-((2-aminopyrimidin-5-yl)ethynyl)-2-chloro-4-fluorophenyl)-5-chloro-2-methoxypyridine-3-sulfonamide] | 100%
18 | CCNc1ncc(C#Cc2c(F)ccc(NS(=O)(=O)c3cc(Cl)ccc3Cl)c2F)cn1 [Example 30, 2,5-dichloro-N-(3-((2-(ethylamino)pyrimidin-5-yl)ethynyl)-2,4-difluorophenyl)benzenesulfonamide TFA Salt] | 98%
19 | COc1ncc(Cl)cc1S(=O)(=O)Nc1ccc(F)c(C#Cc2cnc(NCC(C)(C)O)nc2)c1F [Example 107, 5-chloro-N-(2,4-difluoro-3-((2-((2-hydroxy-2-methylpropyl)amino)pyrimidin-5-yl)ethynyl)phenyl)-2-methoxypyridine-3-sulfonamide] | 99%
20 | COc1ncc(Cl)cc1S(=O)(=O)Nc1ccc(Cl)c(C#Cc2cnc(N)nc2)c1F [Example 124, N-(3-((2-aminopyrimidin-5-yl)ethynyl)-4-chloro-2-fluorophenyl)-5-chloro-2-methoxypyridine-3-sulfonamide] | 100%
21 | COc1ncc(Cl)cc1S(=O)(=O)Nc1cccc(C#Cc2cnc(N)nc2)c1Cl [Example 126, N-(3-((2-aminopyrimidin-5-yl)ethynyl)-2-chlorophenyl)-5-chloro-2-methoxypyridine-3-sulfonamide] | 100%
22 | N#Cc1ccc(Cl)cc1S(=O)(=O)Nc1ccc(F)c(C#Cc2cnc(N)nc2)c1F [Example 29, N-(3-((2-aminopyrimidin-5-yl)ethynyl)-2,4-difluorophenyl)-5-chloro-2-cyanobenzenesulfonamide] | 99%
23 | Nc1ncc(C#Cc2c(F)ccc(NS(=O)(=O)c3cc(Cl)cc4c3OCC4)c2F)cn1 [Example 9, N-(3-((2-aminopyrimidin-5-yl)ethynyl)-2,4-difluorophenyl)-5-chloro-2,3-dihydro-1-benzofuran-7-sulfonamide] | 99%
24 | Cc1ncc(Cl)cc1S(=O)(=O)Nc1ccc(F)c(C#Cc2cnc(N)nc2)c1F [Example 3, N-(3-((2-aminopyrimidin-5-yl)ethynyl)-2,4-difluorophenyl)-5-chloro-2-methylpyridine-3-sulfonamide] | 99%
25 | Nc1ncc(C#Cc2c(F)ccc(NS(=O)(=O)c3cc(C(F)(F)F)ccc3Cl)c2F)cn1 [Example 35, N-(3-((2-aminopyrimidin-5-yl)ethynyl)-2,4-difluorophenyl)-2-chloro-5-(trifluoromethyl)benzenesulfonamide] | 95%
26 | O=S(=O)(Nc1ccc(F)c(C#Cc2cnc(NCCO)nc2)c1F)c1cc(Cl)ccc1Cl [Example 36, 2,5-dichloro-N-(2,4-difluoro-3-((2-((2-hydroxyethyl)amino)pyrimidin-5-yl)ethynyl)phenyl)benzenesulfonamide TFA Salt] | 99%
27 | Nc1ncc(C#Cc2c(F)ccc(NS(=O)(=O)c3cc(Cl)ccc3OC(F)F)c2F)cn1 [Example 21, N-(3-((2-aminopyrimidin-5-yl)ethynyl)-2,4-difluorophenyl)-5-chloro-2-(difluoromethoxy)benzenesulfonamide] | 99%
28 | Cc1cc(C)cc(S(=O)(=O)Nc2ccc(F)c(C#Cc3cnc4[nH]ncc4c3)c2F)c1 [Example 111, N-(2,4-difluoro-3-(1H-pyrazolo[3,4-b]pyridin-5-ylethynyl)phenyl)-3,5-dimethylbenzenesulfonamide TFA Salt] | 97%

Same assay, conditions: GCN2 enzyme inhibitory activity at compound concentration of 3 μM; Table 3-2; read-out: inhibitory rate

Row | Structure (SMILES) | inhibition at 3 µM
29 | COc1c(CO)cc(Cl)cc1S(=O)(=O)Nc1ccc(F)c(C#Cc2cnc(N)c(C)n2)c1F [Example 131, N-(3-((5-amino-6-methylpyrazin-2-yl)ethynyl)-2,4-difluorophenyl)-5-chloro-3-(hydroxymethyl)-2-methoxybenzenesulfonamide] | 99%
30 | Nc1ncc(C#Cc2c(F)ccc(NS(=O)(=O)c3cc(Cl)cnc3C(F)(F)F)c2F)cn1 [Example 136, N-(3-((2-aminopyrimidin-5-yl)ethynyl)-2,4-difluorophenyl)-5-chloro-2-(trifluoromethyl)pyridine-3-sulfonamide] | 99%
